In PMC11184554, “Nature-Inspired Gallinamides Are Potent Antischistosomal Agents: Inhibition of the Cathepsin B1 Protease Target and Binding Mode Analysis” (ACS Infectious Diseases, 2024):

Tests used:
recombinant SmCB1 = assay: Kinetic inhibition assay with recombinant SmCB1 (k2nd); type: biochemical, S. mansoni
Description: Gallinamide A and a series of its 18 derivatives were evaluated in vitro as inhibitors of SmCB1 to explore the binding specificities of the subsites in the enzyme’s active site. The gallinamide A inhibitor scaffold can be defined by positions P4 through P1′ (Schechter and Berger nomenclature[37]), which were assigned according to the binding mode analysis (see the crystallographic section below). The substituents R4, R1, and R1′ introduced on the scaffold (Table 2) are numbered according to the respective positions P4, P1, and P1′. The compounds’ second-order rate constants (k2nd) were determined using a kinetic inhibition assay with recombinant SmCB1 and the substrate, Cbz–Phe–Arg–AMC.
Inhibition measurements were performed in duplicate in 96-well microplates (100 μL assay volume) at 37 °C. SmCB1 (40 pM) was added to a mixture of the fluorogenic substrate Cbz–Phe–Arg–AMC (25 μM) and an inhibitor (0–100 μM) in 0.1 M sodium acetate, pH 5.5, containing 2.5 mM dithiothreitol and 0.01% (w/v) BRIJ 35. Substrate hydrolysis was monitored in an Infinite M1000 microplate reader (Tecan) at excitation and emission wavelengths of 360 and 465 nm, respectively, for up to 150 min. An observed first-order rate constant, kobs, was calculated at each inhibitor concentration by fitting the progress curve to the equation P = vi/kobs(1 – exp(−kobst)) + d where P is the product formation, t is the reaction time, vi is the initial velocity, and d is the offset. […] The second-order rate constant, k2nd, (and SE value) was determined by fitting the linear equation kobs = (k2nd[I])/(1 + [S]/Km), where [S] is the substrate concentration, [I] is the inhibitor concentration, and KM is the Michaelis–Menten constant. The KM value determined for SmCB1 was 25 μM. […] To determine IC50 values, SmCB1 (40 pM) was preincubated with the inhibitor (0–100 μM) for 30 min under assay conditions as described above, followed by the addition of the fluorogenic substrate Cbz–Phe–Arg–AMC (20 μM). Substrate hydrolysis was monitored for 30 min in a microplate reader as described above. The IC50 values were determined by nonlinear regression using GraFit software (Erithacus Software).

[1] = tested on: S. mansoni newly transformed schistosomula (NTS); assay: Phenotypic screen with newly transformed schistosomula (NTS); type: cell-based
Description: The same 19 gallinamides were screened for bioactivity against S. mansoni newly transformed schistosomula (NTS), the postinvasive parasite stage that feeds on host blood.[40] In this primary assay, the NTS were exposed to 1 and 10 μM compounds for 3 days, and the resulting phenotypic responses were graded from 0 through 4, i.e., the least to the most severe (Table 2 and Table S1). […] The effects were more pronounced after 72 h, and when the higher, 10 μM, compound concentration was used (Table S1). […] Also, compared to gallinamide A and its analogs, 3 has an additional N-terminal N-acetamide modification that further reduces bioactivity (Table 2).
Phenotypic screens employed S. mansoni newly transformed schistosomula (NTS) and adults and were carried out as described previously.[18]−[20],[42] NTS were prepared by mechanically transforming infective larvae (cercariae).[40],[42] NTS (200–300 parasites) were incubated in flat-bottomed 96-well plates in 200 μL of Basch Medium 169 containing 5% (v/v) FBS, 100 U mL^–1 penicillin and 100 μg mL^–1 streptomycin (complete Basch medium)[75] at 5% CO2 and 37 °C.[76],[77] Inhibitors were added at final concentrations of 1 and 10 μM, and changes in phenotypes were observed under an inverted microscope every 24 h for up to 72 h.
A constrained nomenclature of “descriptors”[39],[42] was used to record the multiple and dynamic changes in movement, shape, and translucence that the schistosome parasite is capable of (Table S1 for NTS and Table S3 for adults). These descriptors were then converted into an ordinal “severity score” system ranging from 0 (no effect) to 4 (maximum effect), which allows for the relative comparison of compound effects.

Q: What does the source list for `CCC(C)C(C(=O)OC(CC(C)C)C(=O)NC(CC(C)C)C(=O)NC(C=CC(=O)N1C(=O)C=C(OC)C1Cc1ccccc1)Cc1ccccc1)N(C)C` (centres unmarked) [compound 18]?
A: decrease in inhibition vs 14 (recombinant SmCB1; Phe in R1 changed from S to R configuration): 3.4 fold; SmCB1 inhibition k2nd (recombinant SmCB1; second-order rate constant (kinact/Ki), substrate Cbz–Phe–Arg–AMC, pH 5.5, 37 °C, mean ± SE): 16.0 ± 0.2 M^–1·s^–1; schistosomula severity score ([1]; 1 μM compound, 24 h, scale 0 (no effect) to 4 (most severe)): 0; schistosomula severity score ([1]; 1 μM compound, 48 h, scale 0 to 4): 0; schistosomula severity score ([1]; 1 μM compound, 72 h, scale 0 to 4): 0; schistosomula severity score ([1]; 10 µM compound, 24 h, scale 0 to 4): 1; schistosomula severity score ([1]; 10 µM compound, 48 h, scale 0 to 4): 4; schistosomula severity score ([1]; 10 µM compound, 72 h, scale 0 to 4): 4
